Measured values published in paper PMC4854934, “Rapid Screening of Antimicrobial Synthetic Peptides” (International Journal of Peptide Research and Therapeutics, 2015).
Values after ≈ are worked out from the molar mass of the structure shown. “Also recorded” adds a separate entry of the source. Counter-ions that a name gives are not always drawn. Like-named read-outs stand apart in the source and are kept apart here. Where a SMILES comes first, the peptide text is derived from it. Bridges are numbered along the chain shown (N, C = ends). Roman numbers before positions name the chains, in order. Where no end group is shown, it is not given here. The star is where a group is joined. Palmitoyl = CCCCCCCCCCCCCCCC(=O)*; Myristoyl = CCCCCCCCCCCCCC(=O)*; Lauroyl = CCCCCCCCCCCC(=O)*

How the values were obtained:
Format in all cases: cell-based
[1] = system: Pseudomonas aeruginosa ATCC 9027
Experimental: (§1) Minimum inhibitory concentration (MIC) was determined by broth microdilution method on 96-well polypropylene plates, according to Clinical and Laboratory Standards Institute (CLSI) recommendations. All tests were conducted in triplicate and involved six reference strains of the following bacteria: Bacillus subtilis ATCC 6633, Escherichia coli ATCC 25922, Klebsiella pneumoniae ATCC 200603, Pseudomonas aeruginosa ATCC 9027, Staphylococcus aureus ATCC 25923, Staphylococcus epidermidis ATCC 14490 and two reference strains of fungi: Candida albicans ATCC 10231 and Candida tropicalis PCM 2681. Concentrations of applied peptides ranged from 512 to 1 µg/mL. Two microbiological media were used: Mueller–Hinton Broth for bacteria and Sabouraud Dextrose Broth for fungi. Incubation took 18 h at 37 °C and 48 h at 27 °C respectively. MIC was taken as the lowest concentration of a peptide where the visible growth of microbes was inhibited.

[2] = system: Klebsiella pneumoniae ATCC 200603
Experimental: as §1

[3] = system: Escherichia coli ATCC 25922
Experimental: as §1

[4] = system: Staphylococcus aureus ATCC 25923
Experimental: as §1

[5] = system: Candida tropicalis PCM 2681
Experimental: as §1

[6] = system: Candida albicans ATCC 10231
Experimental: as §1

[7] = system: Bacillus subtilis ATCC 6633
Experimental: as §1

[8] = system: Staphylococcus epidermidis ATCC 14490
Experimental: as §1

[9] = system: all microorganisms tested; assay: TLC direct bioautography (TLC-DB) with resazurin; details: crude peptide, bacteria 37 °C 5 h, fungi 27 °C 7 h, resazurin 4 mg/mL (0.1 % Triton X-100); for TLC-DB with separation: zones after resazurin: 4 µL of 5 mg/mL, n-butanol/acetone/acetic acid/5 % ammonia/water 4.5:1.5:1:1:2; for TLC-DB without separation: appearance of spot after resazurin: 10 µL of 5 mg/mL applied directly on TLC plate, no development
Experimental: Direct bioautography assays to choose the most suitable and efficient stationary phase were performed on the following TLC plates: TLC Silica gel 60 RP-18 F254S (Merck), HPTLC-Platten Nano-SIL 20 UV254 (Macherey–Nagel), HPTLC Nano-ADAMANT UV254 (Macherey–Nagel) and TLC Aluminium oxide 60 F254 (Merck). The plates were sealed separately and autoclaved at 121 °C for 15 min. Peptide samples were dissolved in the solution of methanol and distilled water (75:25). 4 μL of each sample (5 mg/mL) was applied on the TLC plate. Separation was performed using a mobile phase consisting of n-butanol, acetone, acetic acid, 5 % ammonia and distilled water (4.5:1.5:1:1:2 v/v/v/v/v). Moreover, samples without separation were also investigated. In this case 10 µL of each sample was applied directly on the TLC plate and dried. All processes were performed under sterile conditions in the laminar flow cabinet. Microbiological assays were conducted using fivefold dilution of overnight culture of bacteria and a 48-h culture of fungi. After evaporation of eluents, TLC plates were sterilized under UV for 15 min and dipped into previously prepared inoculums of microorganisms for 20 s. Subsequently they were placed in a sterile Petri dish and incubated—bacteria at 37 °C for 5 h and fungi at 27 °C for 7 h. To visualize the growth inhibition zones, the plates were sprayed with 4 mg/mL (0.1 % Triton X-100) of a cell viability reagent, resazurin salt solution (Sigma-Aldrich).
To determine the usefulness of the TLC layer material, preliminary separation experiments were carried out. […] RP-18 layer’s stability was affected by TLC-bioautography procedures, resulting in material disruption. On the other hand, aluminum oxide layer was stable enough, however it gave low quality separation. Therefore, Nano-Sil and Nano-ADAMANT layers were chosen as the most suitable for TLC-DB of synthetic antimicrobial peptides. Mobile phase consisting of n-butanol, acetone, acetic acid, 5 % ammonia and distilled water (4.5:1.5:1:1:2 v/v/v/v/v) provided the best separation of tested compounds. Moreover, the influence of TFA content among crude peptides was also investigated. In this case all tested compounds were lyophilized from 0.1 mM HCl for three times before application on TLC plate in order to exchange the TFA to chloride counter ion. Nevertheless, the obtained results were the same. Assays with (Fig. 1) and without separation (Fig. 2) were performed simultaneously. Growing microorganisms that adhered to the surface of the TLC plate reduced the dye to pink resorufin. […] The Rf values of non-viable cell area were the same for purified compounds.

[10] = system: all the tested species of bacteria and fungi; assay: Broth microdilution, summary over all strains; details: summary of Tables 1, 2
Experimental: as §1

[11] = broth microdilution, 96-well polypropylene plates, Mueller-Hinton Broth, 18 h at 37 °C, peptide 512 to 1 µg/mL, triplicate, visible growth
[12] = broth microdilution, 96-well polypropylene plates, Sabouraud Dextrose Broth, 48 h at 27 °C, peptide 512 to 1 µg/mL, triplicate, visible growth

Row | Compound | MIC against P. aeruginosa ATCC 9027 [1, 11] [µg/mL] | MIC against K. pneumoniae ATCC 200603 [2, 11] [µg/mL] | MIC against E. coli ATCC 25922 [3, 11] [µg/mL] | MIC against S. aureus ATCC 25923 [4, 11] [µg/mL] | MIC against C. tropicalis PCM 2681 [5, 12] [µg/mL] | MIC against C. albicans ATCC 10231 [6, 12] [µg/mL] | MIC against B. subtilis ATCC 6633 [7, 11] [µg/mL] | MIC against S. epidermidis ATCC 14490 [8, 11] [µg/mL] | TLC-DB with separation: zones after resazurin [9] | TLC-DB without separation: appearance of spot after resazurin [9] | antimicrobial activity among all the tested species of bacteria and fungi [10] | MIC against P. aeruginosa ATCC 9027 ([1]; ATCC 9027, 18 h) [µg/mL] | MIC against K. pneumoniae ATCC 200603 ([2]; ATCC 200603, 18 h) [µg/mL] | MIC against E. coli ATCC 25922 ([3]; ATCC 25922, 18 h) [µg/mL] | MIC against S. aureus ATCC 25923 ([4]; ATCC 25923, 18 h) [µg/mL] | MIC against C. tropicalis PCM 2681 ([5]; PCM 2681, 48 h) [µg/mL] | MIC against C. albicans ATCC 10231 ([6]; ATCC 10231, 48 h) [µg/mL] | MIC against B. subtilis ATCC 6633 ([7]; ATCC 6633, 18 h) [µg/mL] | MIC against S. epidermidis ATCC 14490 ([8]; ATCC 14490, 18 h) [µg/mL]
1 | CC[C@H](C)[C@H](N)C(=O)N[C@@H](CS)C(=O)N[C@@H](Cc1c[nH]cn1)C(=O)N[C@@H](Cc1c[nH]cn1)C(=O)N[C@@H](CS)C(=O)N[C@H](C(=O)O)[C@@H](C)CC [ICHHCI-OH] (H-ICHHCI-OH; N-terminus assumed) | >512 | >512 | >512 | >512 | >512 | >512 | >512 | >512 | white reduction zone; also recorded: white inhibition zone | soft white inhibition zone | no antimicrobial activity |  |  |  |  |  |  |  | 
2 | CCCCCCCCCCCC(=O)N[C@@H](CSSC[C@H](NC(=O)CCCCCCCCCCC)C(=O)N[C@@H](CCCCN)C(=O)N[C@@H](CCCCN)C(N)=O)C(=O)N[C@@H](CCCCN)C(=O)N[C@@H](CCCCN)C(N)=O [Laur-CKK-NH2 dimer] (I: Lauroyl-Cys-Lys-Lys-NH2 / II: Lauroyl-Cys-Lys-Lys-NH2; disulfide I:1-II:1) |  |  |  |  |  |  |  |  | two blue spots; also recorded: two inhibition zones | did not reduce resazurin |  | 512 (≈ 459 µM) | 8 (≈ 7.17 µM) | 8 (≈ 7.17 µM) | 8 (≈ 7.17 µM) | >512 | 512 (≈ 459 µM) | 2 (≈ 1.79 µM) | 2 (≈ 1.79 µM)
3 | CCCCCCCCCCCCCC(=O)N[C@@H](CCCCN)C(=O)NCC(=O)N[C@@H](CCCCN)C(N)=O [Mir-KGK-NH2] (Myristoyl-Lys-Gly-Lys-NH2) |  |  |  |  |  |  |  |  |  | did not reduce resazurin |  | >512 | 128 (≈ 237 µM) | 64 (≈ 118 µM) | 16 (≈ 29.6 µM) | 256 (≈ 473 µM) | 128 (≈ 237 µM) | 2 (≈ 3.7 µM) | 4 (≈ 7.4 µM)
4 | CCCCCCCCCCCCCCCC(=O)N[C@@H](CCCCNC(=O)C(F)(F)F)C(=O)N[C@@H](CCCCNC(=O)C(F)(F)F)C(N)=O [Pal-K(TFA)K(TFA)-NH2] |  |  |  |  |  |  |  |  |  |  | no antimicrobial activity | >512 | >512 | >512 | >512 | >512 | >512 | >512 | >512
5 | CCCCCCCCCCCCCCCC(=O)N[C@@H](CCCCN)C(=O)NCC(=O)N[C@@H](CCCCN)C(N)=O [Pal-KGK-NH2] (Palmitoyl-Lys-Gly-Lys-NH2) |  |  |  |  |  |  |  |  |  | did not reduce resazurin |  | 64 (≈ 113 µM) | 16 (≈ 28.1 µM) | 8 (≈ 14.1 µM) | 16 (≈ 28.1 µM) | >512 | 64 (≈ 113 µM) | 2 (≈ 3.52 µM) | 4 (≈ 7.03 µM)
6 | CCCCCCCCCCCCCCCC(=O)N[C@@H](CCCCN)C(=O)N[C@@H](CCCCN)C(N)=O [Pal-KK-NH2] |  |  |  |  |  |  |  |  |  | did not reduce resazurin |  | 128 (≈ 250 µM) | 16 (≈ 31.3 µM) | 8 (≈ 15.6 µM) | 8 (≈ 15.6 µM) | 128 (≈ 250 µM) | 128 (≈ 250 µM) | 2 (≈ 3.91 µM) | 4 (≈ 7.82 µM)
7 | GLFDVIKKVASVIGGL-NH2 [Citropin 1.1] |  |  |  |  |  |  |  |  |  |  |  | 256 | 128 | 32 | 16 | 128 | 128 | 4 | 8
8 | KWKLFKKIGAVLKVL-NH2 [CAMEL] | 256 | 2 | 2 | 4 | 256 | 128 | 2 | 1 |  |  |  |  |  |  |  |  |  |  | 
9 | QQRFEWEFEQQ-NH2 [p11] | >512 | >512 | >512 | >512 | >512 | >512 | >512 | >512 |  |  |  |  |  |  |  |  |  |  | 
